What was measured:
Assay in all cases: relative viability (nuclei count vs DMSO), 5 days (fraction); higher = more cells survive
[1] = compound: COc1cc2c(Oc3ccc4[nH]c(C)cc4c3F)ncnc2cc1OCCCN1CCCC1 [Cediranib] + N=C(N)NC(=N)NCCc1ccccc1 [Phenformin] (partner 250 µM)
Outline: (§1)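 Lung cancer cell lines in 1536-well plates got either a single drug or a fixed anchor-drug dose together with five library-drug doses (not always all listed) in √10 steps, by pin tool, on the day after seeding. Nuclei were counted after 5 days, and relative viability is the treated-to-vehicle ratio of nuclei counts. Values are medians of duplicate plates.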

[2] = compound: Nc1ncn([C@H]2C[C@H](O)[C@@H](CO)O2)c(=O)n1 [Decitabine] + N=C(N)NC(=N)NCCc1ccccc1 [Phenformin] (partner 250 µM)
Outline: as §1

[3] = compound: COc1cc2c(Oc3ccc4[nH]c(C)cc4c3F)ncnc2cc1OCCCN1CCCC1 [Cediranib] + CC1(C)CCC(c2ccc(Cl)cc2)=C(CN2CCN(c3ccc(C(=O)NS(=O)(=O)c4ccc(N[C@H](CCN5CCOCC5)CSc5ccccc5)c(S(=O)(=O)C(F)(F)F)c4)cc3)CC2)C1 [Navitoclax] (partner 0.5 µM)
Outline: as §1

[4] = compound: O=C(C[C@H]1NCCC[C@@H]1O)Cn1cnc2cc(Br)c(Cl)cc2c1=O (racemic) [Halofuginone] + Nc1nc2[nH]cc(CCc3ccc(C(=O)N[C@@H](CCC(=O)O)C(=O)O)cc3)c2c(=O)[nH]1 [Pemetrexed] (partner 0.2 µM)
Outline: as §1

201T
relative viability ([1]; first compound 0.04 µM): 0.454 | relative viability ([1]; first compound 0.1265 µM): 0.587 | relative viability ([1]; first compound 0.4 µM): 0.422 | relative viability ([1]; first compound 1.265 µM): 0.483 | relative viability ([1]; first compound 4 µM): 0.41 | relative viability ([2]; first compound 0.04 µM): 0.42 | relative viability ([2]; first compound 0.1265 µM): 0.454 | relative viability ([2]; first compound 0.4 µM): 0.518 | relative viability ([2]; first compound 4 µM): 0.409 | relative viability ([3]; first compound 0.04 µM): 1.25 | relative viability ([3]; first compound 0.1265 µM): 1.28 | relative viability ([3]; first compound 0.4 µM): 1.15 | relative viability ([3]; first compound 1.265 µM): 1.2 | relative viability ([3]; first compound 4 µM): 1.21 | relative viability ([4]; first compound 0.001 µM): 0.31 | relative viability ([4]; first compound 0.003162 µM): 0.329 | relative viability ([4]; first compound 0.01 µM): 0.346 | relative viability ([4]; first compound 0.03162 µM): 0.311 | relative viability ([4]; first compound 0.1 µM): 0.313

A549
relative viability ([1]; first compound 0.04 µM): 0.135 | relative viability ([1]; first compound 0.1265 µM): 0.121 | relative viability ([1]; first compound 0.4 µM): 0.211 | relative viability ([1]; first compound 1.265 µM): 0.153 | relative viability ([1]; first compound 4 µM): 0.212 | relative viability ([2]; first compound 0.04 µM): 0.145 | relative viability ([2]; first compound 0.1265 µM): 0.139 | relative viability ([2]; first compound 0.4 µM): 0.157 | relative viability ([2]; first compound 1.265 µM): 0.0732 | relative viability ([2]; first compound 4 µM): 0.0645 | relative viability ([3]; first compound 0.04 µM): 1.29 | relative viability ([3]; first compound 0.1265 µM): 1.34 | relative viability ([3]; first compound 0.4 µM): 1.23 | relative viability ([3]; first compound 1.265 µM): 1.25 | relative viability ([3]; first compound 4 µM): 1.24

A-427
relative viability ([1]; first compound 0.04 µM): 0.346 | relative viability ([1]; first compound 0.4 µM): 0.228 | relative viability ([1]; first compound 1.265 µM): 0.308 | relative viability ([1]; first compound 4 µM): 0.253 | relative viability ([2]; first compound 0.04 µM): 0.239 | relative viability ([2]; first compound 0.1265 µM): 0.265 | relative viability ([2]; first compound 0.4 µM): 0.19 | relative viability ([2]; first compound 1.265 µM): 0.18 | relative viability ([2]; first compound 4 µM): 0.164 | relative viability ([3]; first compound 0.04 µM): 0.903 | relative viability ([3]; first compound 0.4 µM): 0.909 | relative viability ([3]; first compound 1.265 µM): 0.875 | relative viability ([3]; first compound 4 µM): 0.94 | relative viability ([4]; first compound 0.001 µM): 1 | relative viability ([4]; first compound 0.003162 µM): 1.03 | relative viability ([4]; first compound 0.01 µM): 0.945 | relative viability ([4]; first compound 0.03162 µM): 0.946 | relative viability ([4]; first compound 0.1 µM): 0.887

ABC-1
relative viability ([1]; first compound 0.04 µM): 0.226 | relative viability ([1]; first compound 0.1265 µM): 0.294 | relative viability ([1]; first compound 0.4 µM): 0.243 | relative viability ([1]; first compound 4 µM): 0.241 | relative viability ([2]; first compound 0.04 µM): 0.238 | relative viability ([2]; first compound 0.1265 µM): 0.231 | relative viability ([2]; first compound 0.4 µM): 0.25 | relative viability ([2]; first compound 1.265 µM): 0.252 | relative viability ([2]; first compound 4 µM): 0.212

BEN
relative viability ([1]; first compound 0.04 µM): 0.266 | relative viability ([1]; first compound 0.4 µM): 0.258 | relative viability ([1]; first compound 1.265 µM): 0.236 | relative viability ([1]; first compound 4 µM): 0.253 | relative viability ([2]; first compound 0.04 µM): 0.28 | relative viability ([2]; first compound 0.1265 µM): 0.261 | relative viability ([2]; first compound 0.4 µM): 0.259 | relative viability ([2]; first compound 1.265 µM): 0.239 | relative viability ([2]; first compound 4 µM): 0.245 | relative viability ([3]; first compound 0.04 µM): 0.0686 | relative viability ([3]; first compound 0.1265 µM): 0.0663 | relative viability ([3]; first compound 0.4 µM): 0.0683 | relative viability ([3]; first compound 1.265 µM): 0.0702 | relative viability ([3]; first compound 4 µM): 0.0649 | relative viability ([4]; first compound 0.001 µM): 0.871 | relative viability ([4]; first compound 0.003162 µM): 0.618 | relative viability ([4]; first compound 0.01 µM): 0.788 | relative viability ([4]; first compound 0.03162 µM): 0.647 | relative viability ([4]; first compound 0.1 µM): 0.551

CAL-12T
relative viability ([1]; first compound 0.04 µM): 0.618 | relative viability ([1]; first compound 0.1265 µM): 0.641 | relative viability ([1]; first compound 0.4 µM): 0.597 | relative viability ([1]; first compound 1.265 µM): 0.627 | relative viability ([1]; first compound 4 µM): 0.648 | relative viability ([2]; first compound 0.04 µM): 0.517 | relative viability ([2]; first compound 0.1265 µM): 0.633 | relative viability ([2]; first compound 1.265 µM): 0.372 | relative viability ([2]; first compound 4 µM): 0.339 | relative viability ([3]; first compound 0.04 µM): 1.33 | relative viability ([3]; first compound 0.1265 µM): 1.33 | relative viability ([3]; first compound 0.4 µM): 1.37 | relative viability ([3]; first compound 1.265 µM): 1.27 | relative viability ([3]; first compound 4 µM): 1.34 | relative viability ([4]; first compound 0.001 µM): 1.17 | relative viability ([4]; first compound 0.003162 µM): 1.08 | relative viability ([4]; first compound 0.01 µM): 1.3 | relative viability ([4]; first compound 0.03162 µM): 0.953 | relative viability ([4]; first compound 0.1 µM): 0.72

COR-L23
relative viability ([1]; first compound 0.04 µM): 0.452 | relative viability ([1]; first compound 0.1265 µM): 0.39 | relative viability ([1]; first compound 0.4 µM): 0.406 | relative viability ([1]; first compound 1.265 µM): 0.405 | relative viability ([1]; first compound 4 µM): 0.482 | relative viability ([2]; first compound 0.04 µM): 0.362 | relative viability ([2]; first compound 0.1265 µM): 0.311 | relative viability ([2]; first compound 0.4 µM): 0.303 | relative viability ([2]; first compound 1.265 µM): 0.253 | relative viability ([2]; first compound 4 µM): 0.253 | relative viability ([3]; first compound 0.04 µM): 0.966 | relative viability ([3]; first compound 0.1265 µM): 1.14 | relative viability ([3]; first compound 0.4 µM): 0.893 | relative viability ([3]; first compound 1.265 µM): 0.922 | relative viability ([3]; first compound 4 µM): 1.03 | relative viability ([4]; first compound 0.001 µM): 0.212 | relative viability ([4]; first compound 0.003162 µM): 0.19 | relative viability ([4]; first compound 0.01 µM): 0.2 | relative viability ([4]; first compound 0.03162 µM): 0.192 | relative viability ([4]; first compound 0.1 µM): 0.183

COR-L 105
relative viability ([1]; first compound 0.04 µM): 0.4 | relative viability ([1]; first compound 0.1265 µM): 0.58 | relative viability ([1]; first compound 0.4 µM): 0.497 | relative viability ([1]; first compound 1.265 µM): 0.519 | relative viability ([1]; first compound 4 µM): 0.523 | relative viability ([2]; first compound 0.04 µM): 0.308 | relative viability ([2]; first compound 0.1265 µM): 0.441 | relative viability ([2]; first compound 0.4 µM): 0.383 | relative viability ([2]; first compound 1.265 µM): 0.308 | relative viability ([2]; first compound 4 µM): 0.421 | relative viability ([3]; first compound 0.1265 µM): 0.842 | relative viability ([3]; first compound 0.4 µM): 0.733 | relative viability ([3]; first compound 1.265 µM): 0.756 | relative viability ([3]; first compound 4 µM): 0.693 | relative viability ([4]; first compound 0.001 µM): 1.09 | relative viability ([4]; first compound 0.003162 µM): 1.05 | relative viability ([4]; first compound 0.01 µM): 0.973 | relative viability ([4]; first compound 0.03162 µM): 0.981 | relative viability ([4]; first compound 0.1 µM): 0.964

Calu-6
relative viability ([3]; first compound 0.04 µM): 0.876 | relative viability ([3]; first compound 0.1265 µM): 0.86 | relative viability ([3]; first compound 0.4 µM): 0.898 | relative viability ([3]; first compound 1.265 µM): 0.788 | relative viability ([3]; first compound 4 µM): 0.819

ChaGo-K-1
relative viability ([1]; first compound 0.04 µM): 0.486 | relative viability ([1]; first compound 0.1265 µM): 0.361 | relative viability ([1]; first compound 0.4 µM): 0.452 | relative viability ([1]; first compound 1.265 µM): 0.564 | relative viability ([1]; first compound 4 µM): 0.576 | relative viability ([2]; first compound 0.04 µM): 0.435 | relative viability ([2]; first compound 0.1265 µM): 0.413 | relative viability ([2]; first compound 0.4 µM): 0.301 | relative viability ([2]; first compound 1.265 µM): 0.271 | relative viability ([2]; first compound 4 µM): 0.336 | relative viability ([3]; first compound 0.04 µM): 1.02 | relative viability ([3]; first compound 0.4 µM): 0.952 | relative viability ([3]; first compound 1.265 µM): 1.23 | relative viability ([3]; first compound 4 µM): 0.83 | relative viability ([4]; first compound 0.001 µM): 0.297 | relative viability ([4]; first compound 0.003162 µM): 0.254 | relative viability ([4]; first compound 0.01 µM): 0.251 | relative viability ([4]; first compound 0.03162 µM): 0.256 | relative viability ([4]; first compound 0.1 µM): 0.258

Source: the supplement of paper PMC10307832
